Measured values from US6699463B2, “Photostable cationic organic sunscreen compounds with antioxidant properties and compositions obtained therefrom” (EM Industries, priority 2002, dated 2004).
In brackets after ≈: the same amount, converted by molar mass.

Key:
[1] = Chelating property: free coordination sites in Fe3+-antioxidant complex, UV spectrophotometric azide method; assay type: physicochemical
Protocol: (§1) Iron-catalyzed formation of a hydroxyl radical from a superoxide anion radical and hydrogen peroxide requires the availability of at least one iron coordination site that is either empty or occupied by a readily dissociable ligand, such as water. […] Martell et al, 1957). The results are recorded in Tables 1 and 2. [table]

[2] = Solubility in water / aqueous-ethanolic solution; assay type: physicochemical; settings: for Solubility in water: water / aqueous solution
[3] = Chelating property: free coordination sites in Cu2+-antioxidant complex, UV spectrophotometric azide method; assay type: physicochemical
Protocol: as §1

[4] = DPPH test method (percent reducing activity, antioxidant activity); assay type: biochemical; settings: for IC 50%: DPPH reducing activity; for Reductive activity at 30 μg/ml: DPPH, absorbance at 517 nm after 20 minutes
Protocol: A DPPH concentrate (2.5×) of 25 mg of 1,1-Diphenyl-2-Picyrl-Hydrazyl ACS#1898-66-4 (Sigma #D-9132, lot 99H3601) dissolved in 250 mL ethanol (USP), is prepared fresh on the measurement date. A DPPH working solution is then prepared by diluting 100 mL of this concentrate to a final volume of 250 mL (100 μM/mL). A blank 13×100 mm borosilicate glass screw top tube of ethanol (USP) is used to zero the spectrometer (Milton Roy, Spectronic 20+) at 517 nm and a control tube of DPPH working solution is measured under identical conditions, and taken as 0% activity. Aliquots of the 0.25% & 0.5% (RT & 45° C.) test solution are added to tubes followed by the rapid addition of 4 mL DPPH working solution then rapidly capped and mixed. After 20 minutes, the absorbance of each sample is read at 517 nm.
The percent reducing activity (%RA) is calculated using the following equation: [formula]
Where A(0) is the absorbance value of the DPPH working solution at 517 nm zeroed against an ethanol blank and A(20) is the absorbance at 517 nm, 20 minutes after combining the antioxidant with the DPPH working solution.
The concentration of antioxidant (mg/ml) in the final assay mixture is calculated based on the dilution of respective aliquots of each compound in the final assay volume and %RA tabulated and plotted as percent activity at each concentration in the dilution series.

[5] = UV absorption (λmax, εmax); assay type: physicochemical; settings: for λmax: Example 3 in EtOH:water-70%:30%; for εmax: at λmax
Protocol: The mass was degassed for one hour at 90-95 deg. C. under vacuum. The yield obtained is about 85%. […] A 50% solution in water was prepared for ease of handling.
This material was prepared by following the procedure described in Example 3, except syringaldehyde was replaced with vanillin as a starting material. The product has a λmax at 334 nm (ε max 18050 cm^−1 mol^−1). A 50% solution in water was prepared for ease of handling.

[6] = Comparative photostability of thin films under UV A and UV B irradiation; assay type: physicochemical; settings: thin film, UV A (2 MED/h) and UV B (1 MED/h), 8 h, FIGS. 1 and 2
Protocol: The photostability of compounds of the present invention as well as existing commercial cationic sunscreens is tested according to the procedure described below:
Photostability: Comparative Photostability of Example 3, Incroquat® 283 and Escalol® HP610
Three products [Example 3 (1%), Incroquat 283 (1%) and HP610 (0.1%)] were tested for their photostability by dissolving separately in water or ethanol-water solution containing 0.1% Poly(vinylpyrrolidone-vinyl acetate) copolymer (PVP-VA S630 from ISP). Air drying on a glass plate for one hour gave a thin film, which were irradiated under UV A (2 MED/h) and UV B (1 MED/h) light separately over an 8 h period in a Q-UV Accelerated Weathering Tester. Photodegradation was calculated from the decrease in the maximum absorption of the respective products. The results are illustrated in FIGS. 1 and 2.

CCCCCCCCCCCC[N+](C)(C)CCCNC(=O)c1ccc(N(C)C)cc1.Cc1ccc(S(=O)(=O)[O-])cc1 [Escalol® HP 610]
Iron chelation / water coordination of the complex [1]: do not have iron-or copper-chelating properties
maximal concentration in aqueous-ethanolic solution ([2]; aqueous-ethanolic solution (30:70%)): 0.25%
Solubility in water [2]: very poor solubility
Copper chelation / water coordination of the complex [3]: do not have iron-or copper-chelating properties

CCCCCCCCCCCC[N+](C)(C)CCCNC(=O)C(C#N)=Cc1cc(OC)c(O)c(OC)c1.CS(=O)(=O)[O-] [Example 2, N-(3-Dimethyl-3-dodecylaminopropyl)-alpha-cyano-3,5-dimethoxy-4-hydroxy Cinnamide Methane Sulphonate]
IC 50% [4]: 129 µg/mL
Reductive activity at 30 μg/ml [4]: 28%

Bis-N-[3(N,N-dimethylamino)propyl]-3,5-dimethoxy-4-hydroxybenzylidene Malonamide Bis Ethylsulfate [Example 3]
λmax [5]: 323 nm
εmax [5]: 10,500 cm^−1 mol^−1
Iron chelation / water coordination of the complex [1]: absence of any water coordination
IC 50% [4]: 118 µg/mL
Reductive activity at 30 μg/ml [4]: 22%
Solubility in water [2]: highly soluble in water
Copper chelation / water coordination of the complex [3]: absence of any water coordination
Photostability relative to commercial cationic sunscreens [6]: much higher photostability

COc1cc(/C=C(/C(C)=O)C(=O)NCCCN(C)C)cc(OC)c1O [Example 1, N-(3-Dimethylaminopropyl)-alpha-acyl-3,5-dimethoxy-4-hydroxy Cinnamide]
IC 50% [4]: 79 µg/mL (≈ 225 µM)
Reductive activity at 30 μg/ml [4]: 23%

Bis-N-[3(N,N-dimethylamino)propyl]-3-methoxy-4-hydroxybenzylidene Malonamide Bis Ethylsulfate [Example 4]
λmax [5]: 334 nm
εmax [5]: 18050 cm⁻¹ mol⁻¹
IC 50% [4]: 188 µg/mL
Reductive activity at 30 μg/ml [4]: 8%
